Assay results from PubChem BioAssay (NCI).
“And” between values parts separate entries of the source, which are not always exact repeats. Equal entries are not always repeated.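 The compound was tested at five concentrations on cells cultured in 96-well plates, with a 48-hour exposure period. GI50: concentration for 50% inhibition of growth. TGI denotes the concentration required for complete inhibition of growth.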

Assays:
Assay in all cases: growth of human tumour cells (NCI), 48 h
RXF-631 renal = test system: RXF-631 renal
M19-MEL melanoma = test system: M19-MEL melanoma
SNB-78 CNS = test system: SNB-78 CNS
HOP-18 NSCLC = test system: HOP-18 NSCLC
CAKI-1 renal = test system: CAKI-1 renal
RXF 393 renal = test system: RXF 393 renal
LXFL 529 NSCLC = test system: LXFL 529 NSCLC
MALME-3M melanoma = test system: MALME-3M melanoma
KM20L2 colon = test system: KM20L2 colon
DLD-1 colon = test system: DLD-1 colon
U251 CNS = test system: U251 CNS
DMS 273 small cell lung = test system: DMS 273 small cell lung

Structure (SMILES) | TGI (RXF-631 renal) [µM] | TGI (M19-MEL melanoma) | TGI (SNB-78 CNS) | GI50 (HOP-18 NSCLC) [µM] | TGI (HOP-18 NSCLC) | GI50 (CAKI-1 renal) [µM] | TGI (CAKI-1 renal) | TGI (RXF 393 renal) | TGI (LXFL 529 NSCLC) | TGI (MALME-3M melanoma) | TGI (KM20L2 colon) [µM] | TGI (DLD-1 colon) | TGI (U251 CNS) [µM] | TGI (DMS 273 small cell lung) [µM]
COc1cc2c(c(OC)c1OC)-c1ccc(SC)c(=O)cc1[C@@H](NCc1ccc(F)cc1)CC2 | 52.4 | 75 µM and 13.3 µM | 65.6 µM and > 100 µM | > 100 | 51.3 µM and > 100 µM | < 0.0075 | 51.7 µM and > 100 µM | 75 µM and 19.5 µM | 10.1 µM and 18.2 µM | 34.2 µM and 28.4 µM | < 0.0075 | 75 µM and > 100 µM |  | 
COC(=O)C(=O)C(C(=O)OC)C(=O)C(=O)Nc1c(C)cccc1C (stereo not drawn) | > 100 | > 100 µM | > 100 µM |  | > 100 µM |  | > 100 µM | > 100 µM | > 100 µM | > 100 µM | > 100 | > 100 µM | > 100 | 
Nc1nc2c(N)cc(C(F)(F)F)cc2nc1-c1ccccc1 |  | > 100 µM | > 100 µM |  | > 100 µM |  | > 100 µM | > 100 µM | > 100 µM | > 100 µM | > 100 | > 100 µM | > 100 | > 100
COc1ccc2[nH]c3c(c2c1)[C@H](c1ccccc1)C[C@@H]1C(=O)N(c2ccccc2)C(=O)[C@H]31 | > 100 | > 100 µM | > 100 µM |  | 6.5 µM |  | 71.7 µM | 36.1 µM | > 100 µM | > 100 µM | > 100 | > 100 µM | 38.3 | > 100
CCOC1=C2N=C(C(CC)c3ccccc3F)N=C2C(=O)c2ccccc21 (stereo not drawn) | > 100 | > 100 µM |  |  |  |  | > 100 µM | 74.8 µM | > 100 µM | > 100 µM | > 100 |  | > 100 | > 100
CC(C)c1cccc(C(C)C)c1NC(=O)C(=O)Cc1nc2ccc([N+](=O)[O-])cc2[nH]c1=O | > 100 | > 100 µM |  |  | > 100 µM |  | > 100 µM | > 100 µM | > 100 µM | > 100 µM | > 100 | > 100 µM |  | > 100
N#CC(NNC(=O)Cc1ccccc1)c1cccc(O)c1 (stereo not drawn) |  | > 100 µM | > 100 µM |  | > 100 µM |  | > 100 µM | > 100 µM | > 100 µM | > 100 µM |  | > 100 µM | > 100 | > 100
CN(C)CCNc1ccc2ncn3c4ccccc4c(=O)c1c23 |  | 12.6 µM | 19.8 µM |  | 33 µM |  | 12.9 µM |  | 19.2 µM | 10.2 µM | 13.6 | 12.8 µM | 15.8 | 
COc1cc2ccc3c4ccccc4cnc3c2cc1OC | > 100 | > 100 µM | > 100 µM |  | > 100 µM |  | > 100 µM | > 100 µM | > 100 µM | > 100 µM | > 100 | > 100 µM | > 100 | 
Cc1c(O)c(=O)ccn1CCN | > 100 | > 100 µM | > 100 µM |  | > 100 µM |  | > 100 µM | > 100 µM | > 100 µM | > 100 µM | > 100 | > 100 µM | > 100 | > 100
CC1=C(c2nc3ccccc3s2)C(=O)OC1(C)C | > 100 | > 100 µM | > 100 µM |  |  |  | > 100 µM |  | > 100 µM | > 100 µM | > 100 | > 100 µM | > 100 | > 100
COC(=O)C1CC2C=CC=CC(=O)C2(C)C1 (stereo not drawn) |  | > 100 µM | > 100 µM |  |  |  | > 100 µM |  | > 100 µM | > 100 µM | > 100 | 28.9 µM | > 100 | 
CC(=O)Nc1[nH]n(C)c(=O)c1-c1nnc(C)s1 | > 100 |  | > 100 µM |  |  |  | > 100 µM | > 100 µM | > 100 µM | > 100 µM | > 100 | > 100 µM | > 100 | > 100
COc1ccc(N2C(=O)c3c(c4[nH]c5ccccc5c4c4ccc(C(C)(C)C)cc34)C2=O)cc1 | > 100 | > 100 µM | 60 µM |  | > 100 µM |  | > 100 µM | 98.1 µM | > 100 µM | > 100 µM | > 100 | > 100 µM | 42.7 | > 100
O=Cc1c[nH]c2c(=O)[nH]cnc12 |  | > 100 µM | > 100 µM |  | > 100 µM |  | > 100 µM | > 100 µM | > 100 µM | > 100 µM |  | > 100 µM |  | 
CC(C)(C)N=CN1C=Cc2nc3ccccc3cc2C1 | > 100 | > 100 µM | > 100 µM |  | > 100 µM |  | > 100 µM | > 100 µM | > 100 µM | > 100 µM | > 100 | > 100 µM | > 100 | > 100
CCCCCCCC/C=C1\CCC(CN(C)C)C1=O (stereo not drawn) | 17.9 | 10.5 µM | 27.2 µM |  | 33.8 µM |  | 10 µM |  | 3.01 µM | 14.3 µM | 19.8 | 4.9 µM | 4.38 | 5.12
CCOC(=O)c1c2ccc(/C=C/c3ccccn3)ccc-2c(C(=O)OCC)c1N | > 100 | > 100 µM |  |  | > 100 µM |  | > 100 µM | > 100 µM | > 100 µM | > 100 µM | > 100 | > 100 µM |  | > 100
